Assays:
MDA-MB-231 = experiment: Growth inhibition of cell lines treated with 2X-121; format: cell-based; settings: Homo sapiens; cell line MDA-MB-231, origin Breast; read-out: Measured growth inhibition IC50
Hs578T = experiment: as above; format: cell-based; settings: Homo sapiens, Hs-578T; cell line Hs578T, origin Breast; read-out: Measured growth inhibition IC50
HCC1806 = experiment: as above; format: cell-based; settings: Homo sapiens; cell line HCC1806, origin Breast; read-out: Measured growth inhibition IC50
MDA-MB-436 = experiment: as above; format: cell-based; settings: Homo sapiens; cell line MDA-MB-436, origin Breast; read-out: Measured growth inhibition IC50
MDA-MB-468 = experiment: as above; format: cell-based; settings: Homo sapiens; cell line MDA-MB-468, origin Breast; read-out: Measured growth inhibition IC50
DU145 = experiment: as above; format: cell-based; settings: Homo sapiens, DU-145; cell line DU145, origin Prostate; read-out: Measured growth inhibition IC50
A549 = experiment: as above; format: cell-based; settings: Homo sapiens; cell line A549, origin NSCLC; read-out: Measured growth inhibition IC50
SF-295 = experiment: as above; format: cell-based; settings: Homo sapiens; cell line SF-295, origin GBM; read-out: Measured growth inhibition IC50
HCT-116 = experiment: as above; format: cell-based; settings: Homo sapiens; cell line HCT-116, origin Colon; read-out: Measured growth inhibition IC50
HepG2 = experiment: as above; format: cell-based; settings: Homo sapiens; cell line HepG2, origin HCC; read-out: Measured growth inhibition IC50
SNU-182 = experiment: as above; format: cell-based; settings: Homo sapiens; cell line SNU-182, origin HCC; read-out: Measured growth inhibition IC50
HEC-108 = experiment: as above; format: cell-based; settings: cell line HEC-108, origin Endometrial; read-out: Measured growth inhibition IC50
ECC-1 = experiment: as above; format: cell-based; settings: Homo sapiens; cell line ECC-1, origin Endometrial; read-out: Measured growth inhibition IC50
HEC-50B = experiment: as above; format: cell-based; settings: cell line HEC-50B, origin Endometrial; read-out: Measured growth inhibition IC50
SNG-II = experiment: as above; format: cell-based; settings: cell line SNG-II, origin Endometrial; read-out: Measured growth inhibition IC50
KLE = experiment: as above; format: cell-based; settings: Homo sapiens; cell line KLE, origin Endometrial; read-out: Measured growth inhibition IC50
HEC-1A = experiment: as above; format: cell-based; settings: Homo sapiens; cell line HEC-1A, origin Endometrial; read-out: Measured growth inhibition IC50
MFE-296 = experiment: as above; format: cell-based; settings: Homo sapiens; cell line MFE-296, origin Endometrial; read-out: Measured growth inhibition IC50
MFE-280 = experiment: as above; format: cell-based; settings: Homo sapiens; cell line MFE-280, origin Endometrial; read-out: Measured growth inhibition IC50
HEC-151 = experiment: as above; format: cell-based; settings: cell line HEC-151, origin Endometrial; read-out: Measured growth inhibition IC50
NCI-H209 = experiment: as above; format: cell-based; settings: Homo sapiens; cell line NCI-H209, origin SCLC; read-out: Measured growth inhibition IC50
NCI-H211 = experiment: as above; format: cell-based; settings: Homo sapiens; cell line NCI-H211, origin SCLC; read-out: Measured growth inhibition IC50
HL-60 = experiment: as above; format: cell-based; settings: Homo sapiens; cell line HL-60, origin Promyelocytic leukemia; read-out: Measured growth inhibition IC50
RL = experiment: as above; format: cell-based; settings: Homo sapiens; cell line RL, origin NHL B cell lymphoma; read-out: Measured growth inhibition IC50
Namalwa = experiment: as above; format: cell-based; settings: cell line Namalwa, origin Burkitts lymphoma; read-out: Measured growth inhibition IC50
MC/CAR = experiment: as above; format: cell-based; settings: cell line MC/CAR, origin Myeloma; read-out: Measured growth inhibition IC50
U266 = experiment: as above; format: cell-based; settings: Homo sapiens, U-266; cell line U266, origin Myeloma; read-out: Measured growth inhibition IC50
Jeko-1 = experiment: as above; format: cell-based; settings: Homo sapiens; cell line Jeko-1, origin MCL; read-out: Measured growth inhibition IC50
Mino = experiment: as above; format: cell-based; settings: Homo sapiens; cell line Mino, origin MCL; read-out: Measured growth inhibition IC50
KG-1 = experiment: as above; format: cell-based; settings: Homo sapiens; cell line KG-1, origin AML; read-out: Measured growth inhibition IC50
RPMI-8226 = experiment: as above; format: cell-based; settings: Homo sapiens; cell line RPMI-8226, origin Myeloma; read-out: Measured growth inhibition IC50
P-glycoprotein = P-glycoprotein (Homo sapiens, UniProt P08183); settings: cited from earlier work
[1] = system: P-glycoprotein expressing cells; settings: cited from earlier work
[2] = cited from earlier work
[3] = in vivo; cited from earlier work

Chain of P-glycoprotein (P08183 whole entry): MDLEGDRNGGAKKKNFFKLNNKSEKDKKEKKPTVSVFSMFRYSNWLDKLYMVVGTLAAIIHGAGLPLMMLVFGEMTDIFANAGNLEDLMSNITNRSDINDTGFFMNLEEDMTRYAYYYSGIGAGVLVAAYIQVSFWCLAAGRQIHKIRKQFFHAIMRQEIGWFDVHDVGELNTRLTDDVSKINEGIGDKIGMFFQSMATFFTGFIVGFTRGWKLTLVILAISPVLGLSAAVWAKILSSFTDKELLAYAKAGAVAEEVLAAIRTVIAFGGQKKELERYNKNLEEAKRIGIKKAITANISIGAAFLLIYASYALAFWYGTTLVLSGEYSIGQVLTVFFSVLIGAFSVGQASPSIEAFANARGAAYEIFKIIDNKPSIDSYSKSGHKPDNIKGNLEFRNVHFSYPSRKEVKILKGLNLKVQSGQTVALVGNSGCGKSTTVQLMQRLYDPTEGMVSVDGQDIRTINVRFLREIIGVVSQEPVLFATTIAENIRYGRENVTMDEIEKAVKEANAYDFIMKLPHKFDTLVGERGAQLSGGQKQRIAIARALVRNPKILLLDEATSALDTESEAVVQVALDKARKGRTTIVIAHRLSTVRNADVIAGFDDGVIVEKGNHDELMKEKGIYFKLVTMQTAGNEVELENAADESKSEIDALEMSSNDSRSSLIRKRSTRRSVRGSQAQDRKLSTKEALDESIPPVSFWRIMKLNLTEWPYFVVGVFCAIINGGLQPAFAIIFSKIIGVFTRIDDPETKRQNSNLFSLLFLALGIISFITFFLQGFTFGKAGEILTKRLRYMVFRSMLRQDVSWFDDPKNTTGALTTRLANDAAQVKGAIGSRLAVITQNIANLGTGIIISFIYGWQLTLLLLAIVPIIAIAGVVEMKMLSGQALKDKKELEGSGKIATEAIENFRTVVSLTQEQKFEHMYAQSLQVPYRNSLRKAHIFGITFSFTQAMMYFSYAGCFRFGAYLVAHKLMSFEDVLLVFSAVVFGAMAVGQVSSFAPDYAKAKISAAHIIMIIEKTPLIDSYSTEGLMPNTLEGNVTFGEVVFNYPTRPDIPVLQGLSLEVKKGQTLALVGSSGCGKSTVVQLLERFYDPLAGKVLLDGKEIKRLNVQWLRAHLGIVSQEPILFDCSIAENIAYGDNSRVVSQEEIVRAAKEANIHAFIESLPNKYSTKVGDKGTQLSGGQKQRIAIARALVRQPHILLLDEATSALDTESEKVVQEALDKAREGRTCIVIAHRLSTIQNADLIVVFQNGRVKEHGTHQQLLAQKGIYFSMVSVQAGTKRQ

## O=c1[nH]nc2c3c(cccc13)N=C(CN1Cc3ccccc3C1)N2 [2X-121, 8-(isoindolin-2-ylmethyl)-2,9-dihydro-3H-pyridazino[3,4,5-de]quinazolin-3-one]
MDA-MB-231
  IC50: 25000 nM
Hs578T
  IC50: 9600 nM
HCC1806
  IC50: 1800 nM
MDA-MB-436
  IC50: 190 nM
MDA-MB-468
  IC50: 2500 nM
DU145
  IC50: 1800 nM
A549
  IC50: 2200 nM
SF-295
  IC50: 2600 nM
HCT-116
  IC50: 1700 nM
HepG2
  IC50: 3800 nM
SNU-182
  IC50: 5400 nM
HEC-108
  IC50: 5970 nM
ECC-1
  IC50: 680 nM
HEC-50B
  IC50: 3450 nM
SNG-II
  IC50: 5260 nM
KLE
  IC50: 2590 nM
HEC-1A
  IC50: 2960 nM
MFE-296
  IC50: 670 nM
MFE-280
  IC50: 770 nM
HEC-151
  IC50: 1440 nM
NCI-H209
  IC50: 620 nM
NCI-H211
  IC50: 480 nM
HL-60
  IC50: 10300 nM
RL
  IC50: 2500 nM
Namalwa
  IC50: 2500 nM
MC/CAR
  IC50: 2300 nM
U266
  IC50: 6700 nM
Jeko-1
  IC50: 1900 nM
Mino
  IC50: 3400 nM
KG-1
  IC50: 2000 nM
RPMI-8226
  IC50: 9300 nM
P-glycoprotein
  substrate for P-glycoprotein: not a substrate for P-glycoprotein
[1]
  activity in P-glycoprotein expressing cells: active
[2]
  oral bioavailability: orally bioavailable
[3]
  brain penetration: brain penetrable
